Results as given in patent publication US20120178765A1, “NOVEL GLUCOKINASE ACTIVATORS AND PROCESSES FOR THE PREPARATION THEREOF” (YUHAN CORPORATION, priority 2009, published 2012).
pEC50: −log10 of the molar value. Where a name gives a salt, the structure may show the parent alone.

The molecules below were run against T1, Glucokinase (Homo sapiens, UniProt P35557) (assay: Glucokinase activation assay (NADPH absorbance at 340 nm)). Conditions: glucokinase (ProteinOne Inc.), 5 mM D(+)-glucose, 24° C., 90 minutes.
T1 construct: purchased ProteinOne Inc
T1 sequence (P35557 1-465): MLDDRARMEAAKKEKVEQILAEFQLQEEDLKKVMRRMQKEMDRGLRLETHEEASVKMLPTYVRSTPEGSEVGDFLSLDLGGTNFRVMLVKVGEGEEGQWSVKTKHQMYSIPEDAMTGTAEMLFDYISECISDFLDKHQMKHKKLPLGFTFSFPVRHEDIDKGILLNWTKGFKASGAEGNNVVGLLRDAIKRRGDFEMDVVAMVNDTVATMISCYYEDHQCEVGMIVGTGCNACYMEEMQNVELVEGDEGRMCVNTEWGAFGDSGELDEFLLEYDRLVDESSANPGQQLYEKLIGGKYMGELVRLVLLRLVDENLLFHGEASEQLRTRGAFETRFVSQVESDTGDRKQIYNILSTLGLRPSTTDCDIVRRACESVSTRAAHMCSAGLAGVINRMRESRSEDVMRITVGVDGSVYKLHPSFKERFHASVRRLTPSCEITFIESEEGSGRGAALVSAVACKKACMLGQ
Format: biochemical
Summary of the method: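 Glucokinase (100 ng/uL) coupled to G6PDH in 25 mM HEPES pH 7 with 5 mM D(+)-glucose, 1 mM ATP, 1 mM NADP; compounds added.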

Molecule | pEC50
3-[trans-2-(2,3-difluorophenyl)vinyl]-5-(2-methoxy-(1S)-methyl-ethoxy)-N-(5-fluorothiazol-2-yl)-benzamide [Example 24] | 7.33
CCOC(=O)CC(=O)Nc1cccc(CCc2cc(O[C@@H](C)COC)cc(C(=O)Nc3nccs3)c2)c1 [Example 121, 3-{2-[3-(malonamic acid ethyl ester)phenyl]ethyl}-5-(2-methoxy-(1S)-methyl-ethoxy)-N-(thiazol-2-yl)-benzamide] | 6.77
3-{2-[3-(4-fluorobenzoylamino)phenyl]ethyl}-5-(2-methoxy-(1S)-methyl-ethoxy)-N-(thiazol-2-yl)-benzamide [Example 125] | 6.47
Cc1ccc(/C=C/c2cc(OCC(C)C)cc(C(=O)Nc3nccs3)c2)cc1 [Example 1, 3-[trans-2-(p-tolyl)vinyl]-5-isobutoxy-N-(thiazol-2-yl)-benzamide] | 6.79
3-[2-(4-aminophenyl)ethyl]-5-(2-methoxy-(1S)-methyl-ethoxy)-N-(thiazol-2-yl)-benzamide [Example 92] | 6.95
3-[trans-2-(2,3-difluorophenyl)vinyl]-5-(2-methoxy-(1S)-methyl-ethoxy)-N-(thiazol-2-yl)-benzamide [Example 9] | 7.56
3-[trans-2-(2,4-difluorophenyl)vinyl]-5-(2-methoxy-(1S)-methyl-ethoxy)-N-(1-methyl-1H-pyrazol-3-yl)-benzamide [Example 35] | 6.96
3-[trans-2-(4-fluorophenyl)vinyl]-5-(2-methoxy-(1S)-methyl-ethoxy)-N-(1-methyl-1H-pyrazol-3-yl)-benzamide [Example 39] | 6.92
COC[C@H](C)Oc1cc(/C=C/c2cccc(F)c2F)cc(C(=O)Nc2ccc(C(=O)OC)cn2)c1 [Example 66, 3-[trans-2-(2,3-difluorophenyl)vinyl]-5-(2-methoxy-(1S)-methyl-ethoxy)-N-(nicotinic acid-3-methyl ester-6-yl)-benzamide] | 6.41
3-[trans-2-(4-nitrophenyl)vinyl]-5-(2-methoxy-(1S)-methyl-ethoxy)-N-(5-fluorothiazol-2-yl)-benzamide [Example 21] | 6.47
COC[C@H](C)Oc1cc(/C=C/c2ccccc2F)cc(C(=O)Nc2nccs2)c1 (stereo in doubt) [Example 6, 3-[trans-2-(2-fluorophenyl)vinyl]-5-(2-methoxy-(1S)-methyl-ethoxy)-N-(thiazol-2-yl)-benzamide] | 7.41
3-[trans-2-(2-bromophenyl)vinyl]-5-(2-methoxy-(1S)-methyl-ethoxy)-N-(1-methyl-1H-pyrazol-3-yl)-benzamide [Example 43] | 6.49
COC[C@H](C)Oc1cc(/C=C/c2ccc(F)cc2)cc(C(=O)Nc2ccc(C(=O)OC)cn2)c1 [Example 65, 3-[trans-2-(4-fluorophenyl)vinyl]-5-(2-methoxy-(1S)-methyl-ethoxy)-N-(nicotinic acid-3-methyl ester-6-yl)-benzamide] | 6.53
3-[2-(4-fluorophenyl)ethyl]-5-(2-methoxy-(1S)-methyl-ethoxy)-N-(pyrazin-2-yl)-benz amide [Example 108] | 6.33
COC[C@H](C)Oc1cc(/C=C/c2ccccc2OC)cc(C(=O)Nc2ccc(C(=O)OC)cn2)c1 [Example 61, 3-[trans-2-(2-methoxyphenyl)vinyl]-5-(2-methoxy-(1S)-methyl-ethoxy)-N-(nicotinic acid-3-methyl ester-6-yl)-benzamide] | 6.56
3-[trans-2-(2-methoxyphenyl)vinyl]-5-(2-methoxy-(1S)-methyl-ethoxy)-N-(thiazol-2-yl)-benzamide [Example 16] | 8.08
3-{2-[4-(4-chlorobenzoylamino)phenyl]ethyl}-5-(2-methoxy-(1S)-methyl-ethoxy)-N-(thiazol-2-yl)-benzamide [Example 140] | 6.36
3-{2-[4-(3,5-dimethoxybenzoylamino)phenyl]ethyl}-5-(2-methoxy-(1S)-methyl-ethoxy)-N-(thiazol-2-yl)-benzamide [Example 141] | 6.45
COC[C@H](C)Oc1cc(CCc2ccccc2N)cc(C(=O)Nc2nccs2)c1 [Example 110, 3-[2-(2-aminophenyl)ethyl]-5-(2-methoxy-(1S)-methyl-ethoxy)-N-(thiazol-2-yl)-benzamide hydrochloride] | 7.17
3-[trans-2-(2-methoxyphenyl)vinyl]-5-(2-methoxy-(1S)-methyl-ethoxy)-N-(1-methyl-1 H-pyrazol-3-yl)-benzamide [Example 42] | 6.94
3-[trans-2-(2-methoxyphenyl)vinyl]-5-(2-methoxy-(1S)-methyl-ethoxy)-N-(pyrazin-2-yl)-benzamide [Example 48] | 6.55

Molecule | pEC50
3-[trans-2-(2,5-difluorophenyl)vinyl]-5-(2-methoxy-(1S)-methyl-ethoxy)-N-(pyrazin-2-yl)-benzamide [Example 57] | 6.55
COC[C@H](C)Oc1cc(/C=C/c2ccccc2[N+](=O)[O-])cc(C(=O)Nc2nccs2)c1 [Example 13, 3-[trans-2-(2-nitrophenyl)vinyl]-5-(2-methoxy-(1S)-methyl-ethoxy)-N-(thiazol-2-yl)-benzamide] | 7.90
3-{2-[4-(3-phenyl-ureido)phenyl]ethyl}-5-(2-methoxy-(1S)-methyl-ethoxy)-N-(thiazol-2-yl)-benzamide [Example 145] | 6.50
3-{2-[3-(3-ethyl-thio-ureido)phenyl]ethyl}-5-(2-methoxy-(1S)-methyl-ethoxy)-N-(thiazol-2-yl)-benzamide [Example 131] | 6.31
3-[2-(2,5-difluorophenyl)ethyl]-5-(2-methoxy-(1S)-methyl-ethoxy)-N-(thiazol-2-yl)-benzamide [Example 86] | 7.44
3-[2-(2-chlorophenyl)ethyl]-5-(2-methoxy-(1S)-methyl-ethoxy)-N-(1-methyl-1H-pyrazol-3-yl)-benzamide [Example 101] | 7.07
COC[C@H](C)Oc1cc(/C=C/c2c(F)cccc2F)cc(C(=O)Nc2ccc(C(=O)OC)cn2)c1 [Example 69, 3-[trans-2-(2,6-difluorophenyl)vinyl]-5-(2-methoxy-(1S)-methyl-ethoxy)-N-(nicotinic acid-3-methyl ester-6-yl)-benzamide] | 6.84
COC[C@H](C)Oc1cc(/C=C/c2ccccc2[N+](=O)[O-])cc(C(=O)Nc2ccc(C(=O)OC)cn2)c1 [Example 62, 3-[trans-2-(2-nitrophenyl)vinyl]-5-(2-methoxy-(1S)-methyl-ethoxy)-N-(nicotinic acid-3-methyl ester-6-yl)-benzamide] | 6.97
3-[trans-2-(4-methoxyphenyl)vinyl]-5-(2-methoxy-(1S)-methyl-ethoxy)-N-(1-methyl-1H-pyrazol-3-yl)-benzamide [Example 41] | 6.61
3-[2-(2-fluorophenyl)ethyl]-5-(2-methoxy-(1S)-methyl-ethoxy)-N-(thiazol-2-yl)-benzamide [Example 84] | 7.38
3-{2-[3-(4-nitrobenzoylamino)phenyl]ethyl}-5-(2-methoxy-(1S)-methyl-ethoxy)-N-(thiazol-2-yl)-benzamide [Example 127] | 6.58
COC[C@H](C)Oc1cc(/C=C/c2cccc([N+](=O)[O-])c2)cc(C(=O)Nc2ccc(C(=O)OC)cn2)c1 [Example 63, 3-[trans-2-(3-nitrophenyl)vinyl]-5-(2-methoxy-(1S)-methyl-ethoxy)-N-(nicotinic acid-3-methyl ester-6-yl)-benzamide] | 6.39
3-[trans-2-(2,3-difluorophenyl)vinyl]-5-(2-methoxy-(1S)-methyl-ethoxy)-N-(pyrazin-2-yl)-benzamide [Example 55] | 6.46
3-[trans-2-(2-nitrophenyl)vinyl]-5-(2-methoxy-(1S)-methyl-ethoxy)-N-(1-methyl-1H-pyrazol-3-yl)-benzamide [Example 32] | 6.55
3-{2-[3-(2-(thiophen-2-yl)acetylamino)phenyl]ethyl}-5-(2-methoxy-(1S)-methyl-ethoxy)-N-(thiazol-2-yl)-benzamide [Example 129] | 6.57
3-{2-[4-(2-(thiophen-2-yl)acetylamino)phenyl]ethyl}-5-(2-methoxy-(1S)-methyl-ethoxy)-N-(thiazol-2-yl)-benzamide [Example 143] | 6.55
3-[trans-2-(2,5-difluorophenyl)vinyl]-5-(2-methoxy-(1S)-methyl-ethoxy)-N-(5-fluorothiazol-2-yl)-benzamide [Example 26] | 7.33
COC[C@H](C)Oc1cc(CCc2cccc(N)c2)cc(C(=O)Nc2nccs2)c1 [Example 111, 3-[2-(3-aminophenyl)ethyl]-5-(2-methoxy-(1S)-methyl-ethoxy)-N-(thiazol-2-yl)-benzamide hydrochloride] | 7.26
COC[C@H](C)Oc1cc(/C=C/c2cccc([N+](=O)[O-])c2)cc(C(=O)Nc2ccn(C)n2)c1 [Example 38, 3-[trans-2-(3-nitrophenyl)vinyl]-5-(2-methoxy-(1S)-methyl-ethoxy)-N-(1-methyl-H-pyrazol-3-yl)-benzamide] | 6.62
3-{2-[3-(phenylacetylamino)phenyl]ethyl}-5-(2-methoxy-(1S)-methyl-ethoxy)-N-(thiazol-2-yl)-benzamide [Example 123] | 6.65
